System: Galium aparine
Test: Field trials in winter oilseed rape: visually estimated weed control of Galium aparine, synergy by the Colby method
Type: in vivo
Details: pethoxamid 1200 g a.i/ha, picloram 23 g a.i/ha, A + B 1200 + 23 g/ha
Description: Two field trials are established in commercial fields of winter oilseed rape Brassica napus, at sites known to contain natural populations of broad-leaved weeds, including Galium aparine. Plots, with a minimum size of 18 m^2, are arranged with three replicates per treatment.
At each trial, each treatment is applied using a small plot sprayer fitted with flatfan nozzles in a spray volume of 200 l/ha at one of three treatment timings: Timing A—early post-emergence of the oilseed rape, when the crop is at cotyledon to one true leaf stage (BBCH10/11) and pre-emergence of G. aparine; Timing B—when the crop has two true leaves (BBCH 12) of the crop and at emergence of G. aparine (BBCH09-10). Full application details are recorded, including weather and soil conditions, as well as growth stages and populations of crop and weed species.
Weed control is then assessed by visually estimating the control, as a percentage, relative to the ground cover and vigour of each weed species in the untreated plots. The weed control evaluation is made at 24-27 days, 40-46 days, 54-60 days and 75-81 days after treatment Timing A.
The data is then analysed using the Colby method to determine synergy.

[1] = Timing A (crop BBCH10/11, pre-emergence of G. aparine), 24-27 days after Timing A
[2] = Timing A (crop BBCH10/11, pre-emergence of G. aparine), 40-46 days after Timing A
[3] = Timing A (crop BBCH10/11, pre-emergence of G. aparine), 54-60 days after Timing A
[4] = Timing A (crop BBCH10/11, pre-emergence of G. aparine), 75-81 days after Timing A
[5] = Timing B (crop BBCH 12, at emergence of G. aparine BBCH09-10), 24-27 days
[6] = Timing B (crop BBCH 12, at emergence of G. aparine BBCH09-10), 40-46 days
[7] = Timing B (crop BBCH 12, at emergence of G. aparine BBCH09-10), 75-81 days

Row | Structure (SMILES) | Weed control (visual estimate relative to untreated plots) [1] [%] | Weed control (visual estimate relative to untreated plots) [2] [%] | Weed control (visual estimate relative to untreated plots) [3] [%] | Weed control (visual estimate relative to untreated plots) [4] [%] | Weed control (visual estimate relative to untreated plots) [5] [%] | Weed control (visual estimate relative to untreated plots) [6] [%] | Weed control (visual estimate relative to untreated plots) [7] [%]
1 | Nc1c(Cl)c(Cl)nc(C(=O)O)c1Cl [picloram] | 0 | 0 | 30 | 30 | 10 | 6.67 | 43.33
2 | CCOCCN(C(=O)CCl)C(=C(C)C)c1ccccc1 [pethoxamid] | 56.67 | 20 | 43.33 | 23.33 | 20 | 6.67 | 50
